Reference: patent US6635639B2, “Use of N-alkylamino-heterocylic compounds for the treatment of migraine” (NPS Allelix Corp., priority 1998, dated 2003)

How the values were obtained:
[1] = target: T1, 5-HT1D receptor (Homo sapiens, UniProt P28221); experiment: Binding affinity, 3H-serotonin displacement from membranes of cells expressing 5-HT1D; details: binding of radioligand inhibited in the presence of 100 nM of test compound; 3H-serotonin 1 nM; read-out: percent inhibition at the 5-HT1D receptor
T1 construct: expressed in transfected cells
Protocol: (§1) Selected compounds of the previous examples, as well as reference compounds, were evaluated for binding affinity using cell types receptive specifically to 5-HT1D and 5-HT1B ligands. The assay protocol generally entailed the incubation of membranes prepared from cells expressing the 5-HT1D or 5-HT1B subtype of 5-HT receptors with ^3H-serotonin (1 nM for 5-HT1D and 2.5 nM for 5-HT1B). Specific concentrations of the test compound were incubated with the radioligand and the membrane homogenates prepared from the recombinant cells. After a 60 minute incubation at 22° C., the incubation was terminated by vacuum filtration. The filters were washed with buffer and counted for radioactivity using liquid scintillation spectroscopy. The affinity of the test compound for the 5-HT1D receptor is expressed as the amount (in percent) of binding of the radioligand that is inhibited in the presence of 100 nM of test compound. A greater percent inhibition indicates greater affinity for the 5-HT1D receptor.

[2] = target: T2, 5-HT1B receptor (Homo sapiens, UniProt P28222); experiment: Binding affinity, 3H-serotonin displacement from membranes of cells expressing 5-HT1B; details: 1 h; 3H-serotonin 2.5 nM; selectivity comparison; read-out: percent inhibition at the 5-HT1B receptor
T2 construct: expressed in transfected cells
Protocol: as §1

T1 sequence (P28221 whole entry): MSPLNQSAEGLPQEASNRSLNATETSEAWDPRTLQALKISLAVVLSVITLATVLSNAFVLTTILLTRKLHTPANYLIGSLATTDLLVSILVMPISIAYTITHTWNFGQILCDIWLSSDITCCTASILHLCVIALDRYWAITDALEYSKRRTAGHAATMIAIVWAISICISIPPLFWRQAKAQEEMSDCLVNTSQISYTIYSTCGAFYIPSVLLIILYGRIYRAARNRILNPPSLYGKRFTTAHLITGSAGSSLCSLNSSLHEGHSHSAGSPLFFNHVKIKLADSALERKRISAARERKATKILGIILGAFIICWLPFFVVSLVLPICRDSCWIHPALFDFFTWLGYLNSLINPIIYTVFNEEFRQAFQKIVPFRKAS
T2 sequence (P28222 whole entry): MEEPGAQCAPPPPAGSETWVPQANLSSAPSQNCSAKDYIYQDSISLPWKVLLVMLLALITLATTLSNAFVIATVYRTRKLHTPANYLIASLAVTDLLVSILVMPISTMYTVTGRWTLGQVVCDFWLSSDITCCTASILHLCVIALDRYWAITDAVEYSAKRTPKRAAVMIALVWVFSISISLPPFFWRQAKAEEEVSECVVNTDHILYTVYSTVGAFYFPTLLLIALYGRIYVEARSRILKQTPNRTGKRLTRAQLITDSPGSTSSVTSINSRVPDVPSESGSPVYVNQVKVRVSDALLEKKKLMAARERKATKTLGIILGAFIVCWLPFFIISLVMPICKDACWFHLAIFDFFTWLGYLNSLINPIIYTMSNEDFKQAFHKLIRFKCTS

Row | Compound | inhibition at 0.1 µM [1] [%] | inhibition at 0.1 µM [2] [%]
1 | CN(C)CCn1ccc2ccc(C3(O)CCSCC3)cc21 [Example 3, 1-(2-(N,N-Dimethylamino)ethyl)-6-(4-hydroxy-tetrahydro-thiopyran-4-yl)-1H-indole] | > 75 | < 15
2 | CN(C)CCn1ncc2ccc(-c3cccs3)cc21 [Example 10, 1-(2-(N,N-dimethylamino)ethyl)-6-(2-thienyl)-1H-indazole] | > 75 | < 50
3 | CN(C)CCn1ccc2ccc(C3(O)CCOCC3)cc21 [Example 6, 6-(4-hydroxy-tetrahydropyran-4-yl)-1-(2-(N,N-dimethylamino)ethyl)-1H-indole] | > 90 | 
4 | CN(C)CCn1ccc2ccc(-c3cccnc3)cc21 [Example 10w, 1-(2-(N,N-dimethylamino)ethyl)-6-(3-pyridinyl)-1H-indole] | > 90 | 
5 | c1cc(-c2ccc3cnn(CCNC4CC4)c3c2)cs1 [Example 9p, 1-(2-(N-cyclopropylamino)ethyl)-6-(3-thienyl)-1H-indazole] | > 75 | 
6 | CN(C)CCn1ncc2ccc(-c3ccncc3)cc21 [Example 12, 1-(2-(N,N-dimethylamino)ethyl)-6(4-pyridinyl)-1H-indazole] | > 75 | 
7 | c1cc(-c2ccc3cnn(CCN4CCCC4)c3c2)cs1 [Example 9i, 1-(2-(N-pyrrolidinyl)ethyl)-6-(3-thienyl)-1H-indazole] | > 75 | < 15
8 | CCN(CC)CCn1ncc2ccc(-c3ccsc3)cc21 [Example 9b, 1-(2-(N,N-diethylamino)ethyl)-6-(3-thienyl)-1H-indazole] | > 75 | < 15
9 | CCN(CC)CCn1ccc2ccc(C3CCSCC3)cc21 [Example 5e, 1-(2-(N,N-diethylamino)ethyl)-6-(tetrahydrothiopyran-4-yl)-1H-indole] | > 75 | < 15
10 | CCN(CC)CCn1ncc2ccc(C3CCOCC3)cc21 [Example 16, 1-(2-(N,N-diethylamino)ethyl)-6-(tetrahydropyran-4-yl)-1H-indazole] | > 75 | < 15

The next lines start with the values.

Row | inhibition at 0.1 µM [1] [%] | inhibition at 0.1 µM [2] [%] | Compound
11 | > 75 | < 15 | CCN(CC)CCn1ncc2ccc(-c3cccnc3)cc21 [Example 10h, 1-(2-(N,N-diethylamino)ethyl)-6-(3-pyridinyl)-1H-indazole]
12 | > 75 |  | CCN(CC)CCn1ncc2ccc(C3CCSCC3)cc21 [Example 16d, 1-(2-(N,N-diethylamino)ethyl)-6-(tetrahydrothiopyran-4-yl)-1H-indazole]
13 | > 50 |  | CCN(CC)CCn1ncc2ccc(-c3cc4ccccc4o3)cc21 [Example 10o, 1-(2-(N,N-diethylamino)ethyl)-6-(benzofuran-2-yl)-1H-indazole]
14 | > 75 |  | CN(C)CCn1ccc2ccc(-c3cccs3)cc21 [Example 10t, 1-(2-(N,N-dimethylamino)ethyl)-6-(2-thienyl)-1H-indole]
15 | > 75 | < 15 | CCN(CC)CCn1ncc2ccc(-c3ccoc3)cc21 [Example 10i, 1-(2-(N,N-diethylamino)ethyl)-6-(furan-3-yl)-1H-indazole]
16 | > 50 |  | CN(C)CCn1ccc2ccc(-c3ccccn3)cc21 [Example 12b, 1-(2-(N,N-dimethylamino)ethyl)-6-(pyridin-2-yl)-1H-indole]
17 | > 90 |  | CN(C)CCn1ncc2ccc(-c3ccsc3)cc21 [Example 10b, 1-(2-(N,N-dimethylamino)ethyl)-6-(3-thienyl)-1H-indazole]
18 | > 75 |  | CCN(CC)CCn1ccc2ccc(-c3cccnc3)cc21 [Example 10dd, 1-(2-(N,N-diethylamino)ethyl)-6-(3-pyridinyl)-1H-indole]
